{"source": "patent US20250263370A1", "about": "(Tay Therapeutics Limited, priority 2022, published 2025)", "test": "Intrinsic clearance in liver microsomes, mouse", "format": "in vitro ADME", "details": "pH 7.4, Method 1, read-out: Half-Life (T1/2) (min), Mouse", "how_it_was_run": "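Compound at 1 μM (0.1–1% DMSO) incubated at 37 °C with mouse or rat liver microsomes (0.5 mg/mL protein) and 1 mM NADPH in PBS pH 7.4; samples taken up to 60 min and quenched in cold acetonitrile. LC-MS/MS of percent remaining gave half-life and CLint; no-NADPH controls run.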", "data": [{"smiles": "CNC(=O)c1[nH]c(C(=O)NC2CCC2)cc1O[C@@H](C)c1ccccc1", "note": "(stereo in doubt) [Example 101, N^5-cyclobutyl-N^2-methyl-3-(1-phenylethoxy)-1H-pyrrole-2,5-dicarboxamide]", "values": [{"measurement": "half-life at 1 μM", "value": 27, "unit": "min"}]}]}
